In brackets after ≈: the same amount, converted by molar mass. Read-outs that look alike come from different tables or passages of the source. Starred links: 1 amine or outer side, 2 acyl side, 3 side chain; linkers in the order of their positions; H or OH if unused. Positions of bridges follow the written chain, without caps; N, C: chain ends. Residues, ends and D or L forms follow the SMILES beside them. *: point of attachment. C20 diacid = O=C(O)CCCCCCCCCCCCCCCCCCC(=O)*; γGlu = O=C(O)[C@H](CCC(=O)[*:2])N[*:1]
What was measured:
[1] = target: T1, human amylin receptor (amylin 3(a) receptor: human calcitonin receptor + RAMP-3) (Homo sapiens, UniProt O60896+P30988); test: Assay (II)a functional CRE-luciferase assay, human amylin receptor; format: cell-based; conditions: Table 2; BHK amylin 3(a)-receptor/CRE-luc cells
T1 construct: expressed in transfected cells; host or cells: BHK570
T1 sequence (P30988 25-474): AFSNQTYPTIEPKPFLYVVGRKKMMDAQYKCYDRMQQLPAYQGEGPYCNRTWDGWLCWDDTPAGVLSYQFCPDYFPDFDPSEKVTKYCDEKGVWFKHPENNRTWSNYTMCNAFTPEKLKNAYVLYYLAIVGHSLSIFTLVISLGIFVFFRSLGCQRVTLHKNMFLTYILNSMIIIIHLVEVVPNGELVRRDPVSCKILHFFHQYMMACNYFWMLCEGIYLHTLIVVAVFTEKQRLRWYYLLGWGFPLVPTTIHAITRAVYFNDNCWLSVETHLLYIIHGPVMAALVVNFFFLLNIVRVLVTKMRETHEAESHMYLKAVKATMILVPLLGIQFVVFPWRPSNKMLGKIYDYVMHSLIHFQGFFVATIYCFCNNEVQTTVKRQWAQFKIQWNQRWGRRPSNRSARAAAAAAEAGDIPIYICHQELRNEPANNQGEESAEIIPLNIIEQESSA
T1 sequence (O60896 24-148 partner): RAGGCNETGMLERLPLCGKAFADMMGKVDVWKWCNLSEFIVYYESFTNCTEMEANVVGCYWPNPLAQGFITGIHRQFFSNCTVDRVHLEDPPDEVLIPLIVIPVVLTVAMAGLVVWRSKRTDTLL

[2] = target: T2, rat amylin 3(a) receptor (rat calcitonin(a) receptor + rat RAMP3) (Rattus norvegicus, UniProt P32214+Q9JJ73); test: Assay (II)b functional cAMP FlashPlate assay, rat amylin receptor; format: cell-based; conditions: Table 11
T2 construct: expressed in transfected cells; host or cells: BHK tk'ts 13
T2 sequence (P32214 25-479 isoform P32214-2 limits assumed): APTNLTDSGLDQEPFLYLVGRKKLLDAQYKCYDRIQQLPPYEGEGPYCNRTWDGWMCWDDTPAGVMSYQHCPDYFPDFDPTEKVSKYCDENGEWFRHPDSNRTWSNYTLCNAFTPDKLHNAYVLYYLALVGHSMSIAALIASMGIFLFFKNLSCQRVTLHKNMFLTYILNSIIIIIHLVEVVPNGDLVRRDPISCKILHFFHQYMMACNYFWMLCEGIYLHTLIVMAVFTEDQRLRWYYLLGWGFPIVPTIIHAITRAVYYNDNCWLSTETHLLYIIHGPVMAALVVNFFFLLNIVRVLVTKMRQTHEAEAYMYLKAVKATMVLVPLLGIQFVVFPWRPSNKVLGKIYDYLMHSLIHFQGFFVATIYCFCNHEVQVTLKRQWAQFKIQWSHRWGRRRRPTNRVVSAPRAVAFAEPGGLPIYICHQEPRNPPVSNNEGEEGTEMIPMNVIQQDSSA
T2 sequence (Q9JJ73 23-147 partner): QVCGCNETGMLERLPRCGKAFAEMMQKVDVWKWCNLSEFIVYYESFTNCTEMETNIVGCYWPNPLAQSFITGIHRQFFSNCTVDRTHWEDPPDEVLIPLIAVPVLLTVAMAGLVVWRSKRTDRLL
Outline: (§1)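 cAMP accumulation in transiently transfected BHK tk'ts 13 cells, 100.000 cells/well, expressing rat calcitonin(a) receptor or its RAMP3 co-expression form (amylin 3(a)): 30 min stimulation with IBMX, 24 hours post-transfection. Readout by competition of cellular versus radiolabelled cAMP in FlashPlates, scintillation counted after 3 h.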

[3] = target: T3, human calcitonin receptor (Homo sapiens, UniProt P30988); test: Assay (II)a functional CRE-luciferase assay, human calcitonin receptor; format: cell-based; conditions: Table 7; human calcitonin (CTa) receptor
T3 construct: expressed in transfected cells; host or cells: BHK570
T3 sequence (P30988 25-474): T1 sequence (P30988 25-474)

[4] = Assay (IV) determination of solubility; format: physicochemical
Outline: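 Eight 100 mM buffers (glycylglycine pH 3.0–5.0, bistrispropane pH 6.0–8.0) each received an equal volume of polypeptide dissolved in water at ~500 nmol/ml. Soluble polypeptide was measured by HPLC following 18 hours at room temperature and centrifugation.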

[5] = target: T4, rat calcitonin (a) receptor (Rattus norvegicus, UniProt P32214); test: Assay (II)b functional cAMP FlashPlate assay, rat calcitonin receptor; format: cell-based; conditions: Table 11; read-out: CTa receptor rat EC50
T4 construct: expressed in transfected cells; host or cells: BHK tk'ts 13
T4 sequence (P32214 25-479 isoform P32214-2 limits assumed): T2 sequence (P32214 25-479 isoform P32214-2 limits assumed)
Outline: as §1

[6] = Assay (IX) pK, determination of T½ in mini-pig; format: in vivo, Göttingen mini-pigs; conditions: male, Göttingen, iv, 2 nmol/kg; minipig; plasma terminal half-life
[7] = bistrispropane buffer, pH 6, pH 6.0, read-out: Solubility pH 6.0
[8] = bistrispropane buffer, pH 6.5, pH 6.5, read-out: Solubility pH 6.5
[9] = bistrispropane buffer, pH 7, pH 7.0, read-out: Solubility pH 7.0
[10] = bistrispropane buffer, pH 7.5, pH 7.5, read-out: Solubility pH 7.5
[11] = bistrispropane buffer, pH 8, pH 8.0, read-out: Solubility pH 8.0
[12] = glycylglycine buffer, pH 3, pH 3.0, read-out: Solubility pH 3.0
[13] = glycylglycine buffer, pH 4, pH 4.0, 18 hours at room temperature, Table 2, read-out: Solubility pH 4.0
[14] = glycylglycine buffer, pH 4, pH 4.0, read-out: Solubility pH 4.0
[15] = glycylglycine buffer, pH 5, pH 5.0, read-out: Solubility pH 5.0
[16] = bistrispropane buffer, pH 7, pH 7.0, 18 hours at room temperature, Table 3, read-out: Solubility pH 7.0
[17] = bistrispropane buffer, pH 7, pH 7.0, Table 8, read-out: Solubility pH 7.0

| EC50 [1] | EC50 [2] | EC50 [3] | solubility at 18 h [4, 7] | solubility at 18 h [4, 8] | solubility at 18 h [4, 9] | solubility at 18 h [4, 10] | solubility at 18 h [4, 11] | solubility at 18 h [4, 12] | solubility at 18 h [4, 13] | solubility at 18 h [4, 14] | solubility at 18 h [4, 15] | EC50 [5] | half-life [6] | solubility at 18 h [4, 16] | solubility at 18 h [4, 17] | solubility at 18 h ([4]; bistrispropane buffer, pH 7, pH 7.0, Table 9, read-out: Solubility pH 7.0) | solubility at 18 h ([4]; bistrispropane buffer, pH 7.5, pH 7.5, Table 9, read-out: Solubility pH 7.5) | Structure (SMILES) |
| --- | --- | --- | --- | --- | --- | --- | --- | --- | --- | --- | --- | --- | --- | --- | --- | --- | --- | --- |
| 85.3 pM | 88.5 pM | 208 pM | > 200 µM | 44 µM (≈ 209 µg/mL) | 29 µM (≈ 137 µg/mL) | 157 µM (≈ 744 µg/mL) | > 200 µM | > 200 µM | > 200 µM | > 200 µM | > 200 µM | 962 pM | 106 h |  |  |  |  | CC[C@H](C)[C@H](NC(=O)[C@@H]1CCCN1C(=O)CNC(=O)[C@H](Cc1ccccc1)NC(=O)[C@H](CC(N)=O)NC(=O)[C@H](CC(N)=O)NC(=O)[C@H](CO)NC(=O)[C@H](CO)NC(=O)[C@H](Cc1cnc[nH]1)NC(=O)[C@H](Cc1cnc[nH]1)NC(=O)[C@H](CC(C)C)NC(=O)[C@H](Cc1ccccc1)NC(=O)[C@H](CCC(=O)O)NC(=O)[C@H](C)NC(=O)[C@H](CC(C)C)NC(=O)[C@H](CCCNC(=N)N)NC(=O)[C@H](CCC(N)=O)NC(=O)[C@@H](NC(=O)[C@H](C)NC(=O)[C@@H]1CSSC[C@H](NC(=O)[C@H](Cc2cnc[nH]2)NC(=O)[C@H](Cc2cnc[nH]2)NC(=O)[C@H](Cc2cnc[nH]2)NC(=O)CC[C@H](NC(=O)CCCCCCCCCCCCCCCCCCC(=O)O)C(=O)O)C(=O)N[C@@H](CC(N)=O)C(=O)N[C@@H]([C@@H](C)O)C(=O)N[C@@H](C)C(=O)N[C@@H]([C@@H](C)O)C(=O)N1)[C@@H](C)O)C(=O)N[C@@H](CC(C)C)C(=O)N1CCC[C@H]1C(=O)N1CCC[C@H]1C(=O)N[C@H](C(=O)N[C@@H](CC(N)=O)C(=O)N[C@H](C(=O)NCC(=O)N[C@@H](CO)C(=O)N[C@@H](CC(N)=O)C(=O)N[C@H](C(=O)N[C@@H](Cc1ccc(O)cc1)C(N)=O)[C@@H](C)O)C(C)C)[C@@H](C)O [Example 11, N-alpha-[(S)-4-Carboxy-4-(19-carboxynonadecanoylamino)butyryl]-His-His-[His1,Glu14,His17]-pramlintide] ({C20 diacid-γGlu}-HHHCNTATCATQRLAEFLHHSSNNFGPILPPTNVGSNTY-NH2; disulfide 4-9) |
| 62 pM | 160 pM | 53.7 pM | > 200 µM | > 200 µM | > 200 µM | > 200 µM | > 200 µM | > 200 µM | > 200 µM | > 200 µM | > 200 µM | 76 pM | 105 h | > 200 µM | > 200 µM | > 200 µM | > 200 µM | CC[C@H](C)[C@H](NC(=O)[C@@H]1CCCN1C(=O)CNC(=O)[C@H](Cc1ccccc1)NC(=O)[C@H](CC(N)=O)NC(=O)[C@H](CC(N)=O)NC(=O)[C@H](CO)NC(=O)[C@H](CO)NC(=O)[C@H](Cc1c[nH]cn1)NC(=O)[C@H](Cc1cnc[nH]1)NC(=O)[C@H](CC(C)C)NC(=O)[C@H](Cc1ccccc1)NC(=O)[C@H](CCC(=O)O)NC(=O)[C@H](C)NC(=O)[C@H](CC(C)C)NC(=O)[C@H](CCCNC(=N)N)NC(=O)[C@H](CCC(N)=O)NC(=O)[C@@H](NC(=O)[C@H](C)NC(=O)[C@@H]1CSSC[C@H](NC(=O)[C@H](CCCCN)NC(=O)CC[C@H](NC(=O)CCCCCCCCCCCCCCCCCCC(=O)O)C(=O)O)C(=O)N[C@@H](CC(N)=O)C(=O)N[C@@H]([C@@H](C)O)C(=O)N[C@@H](C)C(=O)N[C@@H]([C@@H](C)O)C(=O)N1)[C@@H](C)O)C(=O)N[C@@H](CC(C)C)C(=O)N1CCC[C@H]1C(=O)N1CCC[C@H]1C(=O)N[C@H](C(=O)N[C@@H](CC(N)=O)C(=O)N[C@H](C(=O)NCC(=O)N[C@@H](CO)C(=O)N[C@@H](CC(N)=O)C(=O)N[C@H](C(=O)N1CCC[C@H]1C(N)=O)[C@@H](C)O)C(C)C)[C@@H](C)O [Example 52, N-alpha-[(S)-4-Carboxy-4-(19-carboxynonadecanoylamino)butyryl]-[Glu14,His17,Pro37]-pramlintide] ({C20 diacid-γGlu}-KCNTATCATQRLAEFLHHSSNNFGPILPPTNVGSNTP-NH2; disulfide 2-7) |
| 92.5 pM | 121 pM | 67 pM | > 200 µM | > 200 µM | > 200 µM | > 200 µM | > 200 µM | > 200 µM | > 200 µM | > 200 µM | > 200 µM | 109 pM |  | > 200 µM | > 200 µM |  |  | CC[C@H](C)[C@H](NC(=O)[C@@H]1CCCN1C(=O)CNC(=O)[C@H](Cc1ccccc1)NC(=O)[C@H](CC(N)=O)NC(=O)[C@H](CC(N)=O)NC(=O)[C@H](CO)NC(=O)[C@H](CO)NC(=O)[C@H](Cc1c[nH]cn1)NC(=O)[C@H](Cc1cnc[nH]1)NC(=O)[C@H](CC(C)C)NC(=O)[C@H](Cc1ccccc1)NC(=O)[C@H](CCC(=O)O)NC(=O)[C@H](C)NC(=O)[C@H](CC(C)C)NC(=O)[C@H](CCCNC(=N)N)NC(=O)[C@H](CCC(N)=O)NC(=O)[C@@H](NC(=O)[C@H](C)NC(=O)[C@@H]1CSSC[C@H](NC(=O)[C@H](Cc2cnc[nH]2)NC(=O)CC[C@H](NC(=O)CCCCCCCCCCCCCCCCCCC(=O)O)C(=O)O)C(=O)N[C@@H](CC(N)=O)C(=O)N[C@@H]([C@@H](C)O)C(=O)N[C@@H](C)C(=O)N[C@@H]([C@@H](C)O)C(=O)N1)[C@@H](C)O)C(=O)N[C@@H](CC(C)C)C(=O)N1CCC[C@H]1C(=O)N1CCC[C@H]1C(=O)N[C@H](C(=O)N[C@@H](CC(N)=O)C(=O)N[C@H](C(=O)NCC(=O)N[C@@H](CO)C(=O)N[C@@H](CC(N)=O)C(=O)N[C@H](C(=O)N1CCC[C@H]1C(N)=O)[C@@H](C)O)C(C)C)[C@@H](C)O [Example 84, N-alpha-[(S)-4-Carboxy-4-(19-carboxynonadecanoylamino)butyryl]-[His1,Glu14,His17,Pro37]-pramlintide] ({C20 diacid-γGlu}-HCNTATCATQRLAEFLHHSSNNFGPILPPTNVGSNTP-NH2; disulfide 2-7) |

— patent publication US8722849B2, “Polypeptides” (Novo Nordisk A/S, priority 2011, dated 2014)
